Test results from ChEMBL document CHEMBL1201862, “PubChem BioAssay data set” (2004).
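Where inhibition never reached the appropriate level, the endpoint shown equals the highest concentration tested. Otherwise, values were interpolated linearly from a five-concentration, 48-hour dose response in 96-well plates. GI50 marks 50% less growth.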 Active and inactive are the calls of the source. Cut-off read from the data, not from the text of the source: active = GI50 up to about 1.1 µM and inactive = higher.

Tests used:
Assay in all cases: growth of human tumour cells (NCI), 48 h
MDA-MB-231 = test system: MDA-MB-231
786-0 = test system: 786-0
UACC-62 = test system: UACC-62
NCI/ADR-RES = test system: NCI/ADR-RES
HCC 2998 = test system: HCC 2998
U-251 = test system: U-251
BT-549 = test system: BT-549
HCT-116 = test system: HCT-116
HOP-92 = test system: HOP-92
SK-MEL-2 = test system: SK-MEL-2
PC-3 = test system: PC-3
SF-268 = test system: SF-268
MCF7 = test system: MCF7
KM12 = test system: KM12
Malme-3M = test system: Malme-3M
MOLT-4 = test system: MOLT-4
LOX IMVI = test system: LOX IMVI
SF-539 = test system: SF-539
CAKI-1 = test system: CAKI-1
Hs-578T = test system: Hs-578T

Measured: GI50

O=C(COc1ccc(OCC(=O)N2C(=O)CC(=O)N(c3ccc(Cl)cc3)C2=S)cc1)N1C(=O)CC(=O)N(c2ccc(Cl)cc2)C1=S
inactive: MDA-MB-231 27.9 µM | 786-0 19.6 µM | UACC-62 16.8 µM | NCI/ADR-RES 22.9 µM | HCC 2998 28.5 µM | U-251 33.3 µM | BT-549 23.3 µM | HCT-116 10.1 µM | HOP-92 20.7 µM | SK-MEL-2 26.3 µM | PC-3 29.3 µM | SF-268 40.4 µM | MCF7 35.1 µM | KM12 15.7 µM | Malme-3M 3.26 µM | MOLT-4 17.9 µM

O=C(CCCCCCCCC(=O)NN1C(=O)/C(=C\c2ccc(O)c(O)c2)SC1c1c(O)ccc2ccccc12)NN1C(=O)C(=Cc2ccc(O)c(O)c2)SC1c1c(O)ccc2ccccc12 (stereo not drawn)
inactive: MDA-MB-231 > 23.8 µM | LOX IMVI 1.79 µM | 786-0 3.46 µM | UACC-62 4.74 µM | NCI/ADR-RES 10.6 µM | HCC 2998 24.5 µM | U-251 12.5 µM | BT-549 > 36.9 µM | HCT-116 4.05 µM | SF-539 8.45 µM | HOP-92 8.47 µM | SK-MEL-2 5.97 µM | PC-3 10.9 µM | SF-268 6.4 µM | MCF7 10.1 µM | KM12 23.9 µM | Malme-3M 5.24 µM | MOLT-4 2.48 µM | CAKI-1 6.01 µM

Cn1nc(Cc2ccc(Cl)cc2)n(N)c1=O
inactive: MDA-MB-231 > 100 µM | 786-0 > 100 µM | UACC-62 39.2 µM | NCI/ADR-RES > 100 µM | HCC 2998 > 100 µM | U-251 > 100 µM | BT-549 > 100 µM | HCT-116 > 100 µM | SF-539 > 100 µM | PC-3 > 100 µM | SF-268 > 100 µM | MCF7 > 100 µM | KM12 > 100 µM | Malme-3M > 100 µM | MOLT-4 > 100 µM | CAKI-1 > 100 µM

CC(=O)Nc1ccc(C(=O)NN2C(=O)CSC2c2ccc([N+](=O)[O-])cc2)cc1 (stereo not drawn)
inactive: MDA-MB-231 75.9 µM | 786-0 > 100 µM | UACC-62 > 100 µM | NCI/ADR-RES > 100 µM | HCC 2998 > 100 µM | U-251 > 100 µM | HCT-116 > 100 µM | SF-539 > 100 µM | HOP-92 > 100 µM | Hs-578T > 100 µM | SK-MEL-2 > 100 µM | SF-268 79.8 µM | MCF7 > 100 µM | KM12 > 100 µM | MOLT-4 > 100 µM

CC(C)(C)C(=O)C(c1ccc(-c2cscn2)cc1)c1ccc(-c2cscn2)cc1
inactive: LOX IMVI > 69.2 µM | 786-0 21.5 µM | UACC-62 21.7 µM | HCC 2998 > 100 µM | U-251 20.7 µM | HCT-116 44 µM | SF-539 23.6 µM | HOP-92 9.55 µM | SK-MEL-2 21.4 µM | SF-268 25.5 µM | KM12 > 83.9 µM | Malme-3M > 56.4 µM | MOLT-4 > 100 µM | CAKI-1 33.4 µM

NN/C(=N\S(=O)(=O)c1cc(S(=O)(=O)c2ccccc2)cs1)Nc1ccc(Cl)cc1
inactive: MDA-MB-231 27.4 µM | LOX IMVI 21.2 µM | 786-0 35.2 µM | UACC-62 17.5 µM | NCI/ADR-RES 29.6 µM | U-251 23.5 µM | BT-549 31.2 µM | HCT-116 20.9 µM | SF-539 42.7 µM | HOP-92 33.3 µM | SK-MEL-2 16.7 µM | PC-3 23.3 µM | SF-268 19.9 µM | MCF7 32.4 µM | KM12 26.1 µM | MOLT-4 18.6 µM | CAKI-1 34.1 µM

CC(C)[Si](OCC1CC(C[C@H]2CC(C[C@H]3C[C@@H](CO[Si](C(C)C)(C(C)C)C(C)C)OC(C)(C)O3)OC(C)(C)O2)OC(C)(C)O1)(C(C)C)C(C)C (stereo partly drawn)
inactive: LOX IMVI > 100 µM | 786-0 > 100 µM | UACC-62 > 100 µM | HCC 2998 > 100 µM | U-251 > 100 µM | HCT-116 > 100 µM | SF-539 > 100 µM | HOP-92 > 100 µM | SK-MEL-2 > 100 µM | SF-268 > 100 µM | KM12 > 100 µM | Malme-3M > 100 µM | MOLT-4 > 100 µM | CAKI-1 > 100 µM

O=C1CCCCC/C1=C\c1ccccc1
inactive: MDA-MB-231 > 100 µM | LOX IMVI > 100 µM | 786-0 > 100 µM | UACC-62 63.4 µM | HCC 2998 > 100 µM | U-251 > 100 µM | BT-549 > 100 µM | HCT-116 > 100 µM | HOP-92 > 100 µM | Hs-578T > 100 µM | SK-MEL-2 > 100 µM | PC-3 > 100 µM | SF-268 > 100 µM | KM12 > 100 µM | Malme-3M > 100 µM | MOLT-4 80.9 µM | CAKI-1 > 100 µM
